# What was measured:
# Type in all cases: in vivo
# [1] = tested on: Bactrocera oleae (olive fly); assay: Release of alkylated porphyrin from flies after feeding with bait interrupted; conditions: B. oleae, 1.25 μM porphyrin in the bait
# Procedure: (§1) An appropriate number of flies (50 flies per each experiment) was caged in 115×55×70 mm Plexiglas cages with several holes (ø=0.5 mm) and starved for 36 h. Then, depending on the protocol to be adopted for each specific experiment, the flies were fed with the bait (10% sucrose and 1% autolysed yeast in neutral aqueous solution), which was either porphyrin-free or added with a predetermined concentration of the porphyrin. These flies were then used in the various experimental sessions.
# (§2) At predetermined times, the flies were sacrificed by freezing; the dead flies were then homogenized with a Polytron in 10 ml of a 2% aqueous solution of sodium dodecylsulphate (SDS). The suspension was centrifuged for 10 min at 2,000 rpm, the pellet was discarded and known aliquots of the supernatant were diluted by means of a chloroform/methanol binary mixture (1/2, v/v). The porphyrin concentration was measured by reading the fluorescence emitted at wavelengths above 630 nm and interpolating the emission intensity with a calibration plot obtained with known amounts of the porphyrin. The results were expressed as nanomoles of porphyrin recovered per fly.
# [2] = tested on: Ceratitis capitata (fruit fly); assay: as above; conditions: C. capitata, 1.25 μM porphyrin in the bait
# Procedure: as §1, §2
# [3] = tested on: Stomoxis calcitrans (stable fly); assay: as above; conditions: S. calcitrans, 1.25 μM porphyrin in the bait
# Procedure: as §1, §2
# Ceratitis capitata flies [4] = assay: Photoinsecticidal action: fly survival after bait and sunlight irradiation; conditions: 3 μM in bait, 12 h after feeding, survival 1 h after irradiation
# Procedure: (§3) Porphyrins: • a) meso[tri(N-methyl-pyridyl), mono(N-dodecyl-pyridyl)]porphine (abbr.: C12) • b) meso[tri(N-methyl-pyridyl), mono(N-tetradecyl-pyridyl)]porphine (abbr.: C14) • c) meso[tri(N-methyl-pyridyl), mono(N-octadecyl-pyridyl)]porphine (abbr.: C18) Bait: Aqueous solution containing 10% sucrose and 1% autolysed yeast Flies: • a) Ceratitis capitata (fruit fly) age: 1 week; weight: 5-6 mg • b) Bactrocera oleae (olive fly) age: 10 days; weight: 4-4.5 mg • c) Stomoxis calcitrans (stable fly) age: 10 days; weight: 12 mg Irradiation: • a) High pressure halogen lamp, equipped with infrared and UV filters, emission 360-850 nm, operated at intensities in the 760-2,000 μE s^−1m^−2 range • b) Sunlight, mid June at Padua latitude, average intensity of […] μE s^−1m^−2 with minimum and maximum values of 950 and, respectively, 1,380 μE s^−1m^−2
# The survival was evaluated 1 h after the end of irradiation.
# as §1
# Ceratitis capitata flies [5] = assay: Photoinsecticidal action: fly survival after bait and visible light irradiation (artificial lamp); conditions: for Survival (% of control untreated flies): survival 10 h after irradiation
# Procedure: as §3
# The irradiations were performed for 1 h, then the flies were kept in dim light for monitoring the survival. Control flies were irradiated under identical conditions after feeding with a porphyrin-free bait.
# The irradiations were performed for 1 h at a fluence-rate of 1220 μE s^−1m^−2. The survival was evaluated 10 h after the end of irradiation. […] The porphyrins are abbreviated as following: HP: haematoporphyrin; C1: meso-tetra(N-methyl-pyridyl)porphine.
# The survival was evaluated 10 h after the end of irradiation.
# as §1, with “sessions. […]” for “sessions.”
# [6] = tested on: Bactrocera oleae (olive fly); assay: Uptake of alkylated porphyrins by flies fed porphyrin-containing bait; conditions: B. oleae
# Procedure: as §3, §1, §2
# [7] = tested on: Ceratitis capitata (fruit fly); assay: as above; conditions: C. capitata
# Procedure: as §3, §1, §2
# [8] = tested on: Stomoxis calcitrans (stable fly); assay: as above; conditions: S. calcitrans
# Procedure: as §3, §1, §2
# [9] = tested on: Stomoxis calcitrans flies; assay: Insecticidal action in the dark: fly survival after porphyrin bait; conditions: fed 24 h, survival 12 h after change to porphyrin-free bait
# Procedure: (§4) These flies were then used in the various experimental sessions. […] The number of survivors was evaluated 12 h after switching from administration of a porphyrin-containing bait to a porphyrin-free bait. In none of the experiments was mortality or any apparent toxic effect observed in control flies (flies not fed with porphyrin, see survival at 0 μM porphyrin concentration).
# Bactrocera oleae flies = assay: as above; conditions: fed 24 h, survival 12 h after change to porphyrin-free bait
# Procedure: as §4
# [10] = exposure time to bait 3 h, porphyrin in bait 1.24 μM
# [11] = exposure time to bait 12 h, porphyrin in bait 1.24 μM
# [12] = exposure time to bait 24 h, porphyrin in bait 1.24 μM
# [13] = porphyrin concentration in bait 0.75 (μmoles), feeding 24 h
# [14] = porphyrin concentration in bait 1.25 (μmoles), feeding 24 h
# [15] = porphyrin concentration in bait 2.10 (μmoles), feeding 24 h
# [16] = porphyrin concentration in bait 3.50 (μmoles), feeding 24 h
# [17] = porphyrin concentration in bait 6.00 (μmoles), feeding 24 h
compound,measurement,setting,value
"CCCCCCCCCCCCCCCCCC[n+]1ccc(-c2c3nc(c(-c4cc[n+](C)cc4)c4ccc([nH]4)c(-c4cc[n+](C)cc4)c4nc(c(-c5cc[n+](C)cc5)c5ccc2[nH]5)C=C4)C=C3)cc1 [C18, meso[tri(N-methyl-pyridyl), mono(N-octadecyl-pyridyl)]porphine]","Recoveries (nmoles of porphyrin per fly), release",[1]; 12 h after feeding interrupted,3.8 nmoles of porphyrin per fly
same,"Recoveries (nmoles of porphyrin per fly), release",[1]; 24 h after feeding interrupted,1.7 nmoles of porphyrin per fly
same,"Recoveries (nmoles of porphyrin per fly), release",[1]; 48 h after feeding interrupted,0.6 nmoles of porphyrin per fly
same,"Recoveries (nmoles of porphyrin per fly), release",[2]; 12 h after feeding interrupted,3.7 nmoles of porphyrin per fly
same,"Recoveries (nmoles of porphyrin per fly), release",[2]; 24 h after feeding interrupted,2.2 nmoles of porphyrin per fly
same,"Recoveries (nmoles of porphyrin per fly), release",[2]; 48 h after feeding interrupted,1.0 nmoles of porphyrin per fly
same,"Recoveries (nmoles of porphyrin per fly), release",[3]; 12 h after feeding interrupted,4.2 nmoles of porphyrin per fly
same,"Recoveries (nmoles of porphyrin per fly), release",[3]; 24 h after feeding interrupted,2.3 nmoles of porphyrin per fly
same,"Recoveries (nmoles of porphyrin per fly), release",[3]; 48 h after feeding interrupted,1.1 nmoles of porphyrin per fly
same,Survival (% of control untreated flies),Ceratitis capitata flies [4]; sunlight (average 1150 μE s^−1m^−2) 15 min,80 % of control untreated flies
same,Survival (% of control untreated flies),Ceratitis capitata flies [4]; sunlight (average 1150 μE s^−1m^−2) 30 min,75 % of control untreated flies
same,Survival (% of control untreated flies),Ceratitis capitata flies [4]; sunlight (average 1150 μE s^−1m^−2) 45 min,61 % of control untreated flies
same,Survival (% of control untreated flies),Ceratitis capitata flies [4]; sunlight (average 1150 μE s^−1m^−2) 60 min,31 % of control untreated flies
same,Survival (% of control untreated flies),"Ceratitis capitata flies [5]; 3 μM in bait 24 h, time interval feeding-irradiation 0 h, irradiation 1 h at 1220 μE s^−1m^−2",45 % of control untreated flies
same,Survival (% of control untreated flies),"Ceratitis capitata flies [5]; 3 μM in bait 24 h, time interval feeding-irradiation 12 h, irradiation 1 h at 1220 μE s^−1m^−2",52 % of control untreated flies
same,Survival (% of control untreated flies),"Ceratitis capitata flies [5]; 3 μM in bait 24 h, time interval feeding-irradiation 24 h, irradiation 1 h at 1220 μE s^−1m^−2",64 % of control untreated flies
same,Survival (% of control untreated flies),"Ceratitis capitata flies [5]; 3 μM in bait 24 h, time interval feeding-irradiation 48 h, irradiation 1 h at 1220 μE s^−1m^−2",70 % of control untreated flies
same,Survival (% of control untreated flies),"Ceratitis capitata flies [5]; 3 μM in bait, fluence-rate 760 μE s^−1m^−2, irradiated 24 h after feeding (title)",52 % of control untreated flies
same,Survival (% of control untreated flies),"Ceratitis capitata flies [5]; 3 μM in bait, fluence-rate 1220 μE s^−1m^−2, irradiated 24 h after feeding (title)",45 % of control untreated flies
same,Survival (% of control untreated flies),"Ceratitis capitata flies [5]; 3 μM in bait, fluence-rate 1500 μE s^−1m^−2, irradiated 24 h after feeding (title)",40 % of control untreated flies
same,Survival (% of control untreated flies),"Ceratitis capitata flies [5]; 3 μM in bait, fluence-rate 2000 μE s^−1m^−2, irradiated 24 h after feeding (title)",31 % of control untreated flies
same,photoinsecticidal action compared among alkylated porphyrins,Ceratitis capitata flies [5]; irradiation with visible light or sunlight,drop in the overall photoactivity
same,Recoveries (nmoles of porphyrin per fly),[6]; [10],1.6 nmoles of porphyrin per fly
same,Recoveries (nmoles of porphyrin per fly),[6]; [11],7.7 nmoles of porphyrin per fly
same,Recoveries (nmoles of porphyrin per fly),[6]; [12],8.9 nmoles of porphyrin per fly
same,Recoveries (nmoles of porphyrin per fly),[6]; [13],5.2 nmoles of porphyrin per fly
same,Recoveries (nmoles of porphyrin per fly),[6]; [14],8.9 nmoles of porphyrin per fly
same,Recoveries (nmoles of porphyrin per fly),[6]; [15],9.7 nmoles of porphyrin per fly
same,Recoveries (nmoles of porphyrin per fly),[6]; [16],12.0 nmoles of porphyrin per fly
same,Recoveries (nmoles of porphyrin per fly),[6]; [17],12.9 nmoles of porphyrin per fly
same,Recoveries (nmoles of porphyrin per fly),[7]; [10],3.1 nmoles of porphyrin per fly
same,Recoveries (nmoles of porphyrin per fly),[7]; [11],6.6 nmoles of porphyrin per fly
same,Recoveries (nmoles of porphyrin per fly),[7]; [12],7.5 nmoles of porphyrin per fly
same,Recoveries (nmoles of porphyrin per fly),[7]; [13],3.6 nmoles of porphyrin per fly
same,Recoveries (nmoles of porphyrin per fly),[7]; [14],7.5 nmoles of porphyrin per fly
same,Recoveries (nmoles of porphyrin per fly),[7]; [15],8.3 nmoles of porphyrin per fly
same,Recoveries (nmoles of porphyrin per fly),[7]; [16],14.3 nmoles of porphyrin per fly
same,Recoveries (nmoles of porphyrin per fly),[7]; [17],16.2 nmoles of porphyrin per fly
same,Recoveries (nmoles of porphyrin per fly),[8]; [10],3.2 nmoles of porphyrin per fly
same,Recoveries (nmoles of porphyrin per fly),[8]; [11],8.9 nmoles of porphyrin per fly
same,Recoveries (nmoles of porphyrin per fly),[8]; [12],9.2 nmoles of porphyrin per fly
same,Recoveries (nmoles of porphyrin per fly),[8]; [13],5.9 nmoles of porphyrin per fly
same,Recoveries (nmoles of porphyrin per fly),[8]; [14],9.2 nmoles of porphyrin per fly
same,Recoveries (nmoles of porphyrin per fly),[8]; [15],12.8 nmoles of porphyrin per fly
same,Recoveries (nmoles of porphyrin per fly),[8]; [16],15.7 nmoles of porphyrin per fly
same,Recoveries (nmoles of porphyrin per fly),[8]; [17],15.7 nmoles of porphyrin per fly
same,Survival (% of control untreated flies),[9]; 0.75 μM in bait,100 % of control untreated flies
same,Survival (% of control untreated flies),[9]; 1.25 μM in bait,79 % of control untreated flies
same,Survival (% of control untreated flies),[9]; 2.10 μM in bait,45 % of control untreated flies
same,Survival (% of control untreated flies),[9]; 3.00 μM in bait,24 % of control untreated flies
same,Survival (% of control untreated flies),[9]; 5.00 μM in bait,10 % of control untreated flies
same,Survival (% of control untreated flies),[9]; 8.10 μM in bait,0 % of control untreated flies
same,Survival (% of control untreated flies),Bactrocera oleae flies; 0.75 μM in bait,100 % of control untreated flies
same,Survival (% of control untreated flies),Bactrocera oleae flies; 1.25 μM in bait,100 % of control untreated flies
same,Survival (% of control untreated flies),Bactrocera oleae flies; 2.10 μM in bait,53 % of control untreated flies
same,Survival (% of control untreated flies),Bactrocera oleae flies; 3.00 μM in bait,39 % of control untreated flies
same,Survival (% of control untreated flies),Bactrocera oleae flies; 5.00 μM in bait,16 % of control untreated flies
same,Survival (% of control untreated flies),Bactrocera oleae flies; 8.10 μM in bait,3 % of control untreated flies

# — patent publication US7384927B2, “Alkylated porphyrins as pesticides acting both in the presence and absence of light” (priority 2003, dated 2008)
